From ChEMBL document CHEMBL4825689, “Halting colorectal cancer metastasis via novel dual nanomolar MMP-9/MAO-A quinoxaline-based inhibitors; design, synthesis, and evaluation” (Eur J Med Chem, 2021)
Calls of active or inactive are those of the source. The calls are words filed in the database; no cut-off is given here.

Experiments:
Epithelial cell = test: Cytotoxicity against albino rat epithelial rat by MTT assay; format: cell-based
[1] = Selectivity index, ratio of IC50 for albino rat epithelial rat to IC50 for human HCT116 cells overexpressing MMP9/MAO-A
HCT-116 [2] = test: Anticancer activity against human HCT-116 cells overexpressing MMP9/MAO-A by MTT assay; format: functional, cell-based
[3] = biological target: T1, Amine oxidase [flavin-containing] A (Homo sapiens, UniProt P21397); test: Inhibition of MAO-A (unknown origin) by multi-well spectrophotometry
T1 sequence (P21397 whole entry): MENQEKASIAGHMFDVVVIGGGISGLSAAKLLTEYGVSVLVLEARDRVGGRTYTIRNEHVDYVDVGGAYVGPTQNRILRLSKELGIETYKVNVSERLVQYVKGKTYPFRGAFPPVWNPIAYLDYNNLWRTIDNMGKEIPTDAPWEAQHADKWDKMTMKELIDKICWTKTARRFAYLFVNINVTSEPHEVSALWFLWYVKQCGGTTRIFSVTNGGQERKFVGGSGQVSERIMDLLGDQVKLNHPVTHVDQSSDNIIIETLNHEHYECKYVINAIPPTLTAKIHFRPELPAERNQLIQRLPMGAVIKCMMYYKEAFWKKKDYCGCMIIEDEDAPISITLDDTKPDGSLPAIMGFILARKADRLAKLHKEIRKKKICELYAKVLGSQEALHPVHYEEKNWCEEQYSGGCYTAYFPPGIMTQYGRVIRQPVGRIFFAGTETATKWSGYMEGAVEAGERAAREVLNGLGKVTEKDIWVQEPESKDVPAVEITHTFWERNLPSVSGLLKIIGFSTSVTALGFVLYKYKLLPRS

HCT-116 [4] = test: Inhibition of cell migration in human HCT116 cells assessed as suppression of cell migration incubated for 20 hrs by wound healing assay relative to control; format: functional
Homo sapiens = organism: Homo sapiens; test: Selectivity for MAO-B (unknown origin) to MAO-A (unknown origin)
[5] = Suppression of HIF1alpha expression in human HCT116 cells assessed as fold change by qRT-PCR analysis; format: functional, HCT-116
[6] = biological target: T2, Matrix metalloproteinase-9 (Homo sapiens, UniProt P14780); test: Inhibition of MMP9 (unknown origin) by colorimetric assay
[7] = biological target: T3, Amine oxidase [flavin-containing] B (Homo sapiens, UniProt P27338); test: Inhibition of MAO-B (unknown origin) by fluorometric assay
T3 sequence (P27338 whole entry): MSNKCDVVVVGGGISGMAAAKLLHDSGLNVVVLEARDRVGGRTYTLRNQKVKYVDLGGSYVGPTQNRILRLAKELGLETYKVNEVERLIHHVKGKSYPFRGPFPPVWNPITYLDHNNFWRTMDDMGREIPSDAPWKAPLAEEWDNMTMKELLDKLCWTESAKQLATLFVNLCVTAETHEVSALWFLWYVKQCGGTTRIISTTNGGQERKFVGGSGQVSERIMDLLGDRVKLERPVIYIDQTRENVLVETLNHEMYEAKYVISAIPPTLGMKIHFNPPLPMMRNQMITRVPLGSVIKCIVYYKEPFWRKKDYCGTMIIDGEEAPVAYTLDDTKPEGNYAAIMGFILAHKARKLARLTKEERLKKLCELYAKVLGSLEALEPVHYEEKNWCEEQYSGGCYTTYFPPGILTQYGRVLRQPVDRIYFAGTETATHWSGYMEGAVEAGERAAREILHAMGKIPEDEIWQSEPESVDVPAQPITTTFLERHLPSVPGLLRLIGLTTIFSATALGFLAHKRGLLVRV

[8] = biological target: T2, Matrix metalloproteinase-9; test: Inhibition of MMP9 (unknown origin) at 1.3 uM by colorimetric assay relative to control
HCT-116 [9] = test: Anticancer activity against human HCT116 cells overexpressing MMP9 assessed as shrinkage incubated for 72 hrs by morphology alteration assay; format: functional, cell-based

T2 sequence (P14780 whole entry): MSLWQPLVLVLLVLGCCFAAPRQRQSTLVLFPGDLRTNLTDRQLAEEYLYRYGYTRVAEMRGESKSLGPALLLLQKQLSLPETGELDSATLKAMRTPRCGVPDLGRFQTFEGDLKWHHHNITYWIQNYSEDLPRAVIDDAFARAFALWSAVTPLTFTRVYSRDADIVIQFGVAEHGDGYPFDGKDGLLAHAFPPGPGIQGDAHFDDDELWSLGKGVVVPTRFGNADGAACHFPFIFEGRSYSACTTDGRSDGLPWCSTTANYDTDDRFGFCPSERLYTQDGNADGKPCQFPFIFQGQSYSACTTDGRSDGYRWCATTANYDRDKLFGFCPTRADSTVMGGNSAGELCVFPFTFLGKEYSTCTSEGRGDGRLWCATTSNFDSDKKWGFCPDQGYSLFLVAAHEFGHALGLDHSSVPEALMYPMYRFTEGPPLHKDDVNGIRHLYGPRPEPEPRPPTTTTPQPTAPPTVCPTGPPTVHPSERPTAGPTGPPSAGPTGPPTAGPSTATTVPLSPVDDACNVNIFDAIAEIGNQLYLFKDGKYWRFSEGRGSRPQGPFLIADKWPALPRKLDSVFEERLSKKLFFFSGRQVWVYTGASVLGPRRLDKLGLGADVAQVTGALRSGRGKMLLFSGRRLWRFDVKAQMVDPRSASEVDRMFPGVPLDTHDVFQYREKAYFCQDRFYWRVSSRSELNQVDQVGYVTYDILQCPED

| Compound | IC50 (HCT-116 [2]) | IC50 [6] | IC50 (Epithelial cell) | Selectivity Index [1] | further results |
| --- | --- | --- | --- | --- | --- |
| CNC(=O)C(Cc1ccccc1)NC(=O)C(CC(C)C)SC1CCCC1S (configuration not stated) | – | 0.00057 µM | – | – | – |
| Nn1c(Cn2c(=O)c(Cc3ccccc3)nc3ccccc32)nnc1Cn1c(=O)c(Cc2ccccc2)nc2ccccc21 | 0.0149 µM | – | 0.00604 µM | 0.405 | – |
| COc1cc(/C=N/NC(N)=S)ccc1O | – | 0.106 µM | – | – | – |
| O=C(CSc1nnc(-c2ccccc2)o1)NCc1ccc2c(c1)OCO2 | – | – | – | – | inhibition [8]: 30.5% |
| COc1cccc2c1C(=O)c1c(O)c3c(c(O)c1C2=O)C[C@@](O)(C(=O)CO)C[C@@H]3O[C@H]1C[C@H](N)[C@H](O)[C@H](C)O1 [DOXORUBICIN] | 0.761 µM | – | 0.00979 µM | 0.013 | – |
| O=c1c(Cc2ccccc2)nc2ccccc2n1Cc1nnco1 | 0.0459 µM | – | 0.00984 µM | – | – |
| O=c1c(O)c(-c2ccc(O)c(O)c2)oc2cc(O)cc(O)c12 [QUERCETIN] | – | 0.174 µM | – | – | – |
| O=c1c(Cc2ccccc2)nc2ccccc2n1Cc1nnc(S)o1 | 0.0107 µM | – | 0.00529 µM | 0.512 | – |
| C(=N\NC1Nc2ccccc2N=C1Cc1ccccc1)/c1ccccc1 (configuration not stated) | – | – | – | – | IC50 ([3]; read-out: IC50): 0.081 µM |
| c1ccc(Cc2nc3ccccc3n3cnnc23)cc1 | – | – | – | – | IC50 ([3]; read-out: IC50): 0.0007 µM |
| CC(C)c1ccc(-n2nnc(-c3ccc(S(=O)(=O)NCC(=O)O)cc3)n2)cc1 | – | 0.11 µM | – | – | – |
| C#CCN(C)CCCOc1ccc(Cl)cc1Cl [CLORGILINE] | – | – | – | – | IC50 [3]: Not Active |
| Nn1c(S)nnc1Cn1c(=O)c(Cc2ccccc2)nc2ccccc21 | 0.036 µM | – | 0.00542 µM | 0.15 | – |

Second part, led by results:

| IC50 (HCT-116 [2]) | IC50 [6] | Compound | IC50 (Epithelial cell) | Selectivity Index [1] | further results |
| --- | --- | --- | --- | --- | --- |
| 0.0183 µM | – | CCOC(=O)Cn1c(=O)c(Cc2ccccc2)nc2ccccc21 | 0.0102 µM | 0.559 | – |
| 0.00557 µM | 0.00507 µM | NC(=S)NNC(=O)Cn1c(=O)c(Cc2ccccc2)nc2ccccc21 | 0.0537 µM | 9.648 | IC50 ([3]; read-out: IC50): 0.0105 µM; inhibition (INH) (HCT-116 [4]): 61.29%; Selectivity Index (Homo sapiens): 1.33; fold change (FC) [5]: >11.02; IC50 [7]: 0.00709 µM |
| 16.3 µM | – | O=C(Cn1c(=O)c(Cc2ccccc2)nc2ccccc21)N/N=C/c1ccccc1O | 0.00812 µM | 0.508 | – |
| 0.0223 µM | – | CC(C)(C)OC(=O)C(Cc1ccccc1)NC(=O)Cn1c(=O)c(Cc2ccccc2)nc2ccccc21 (configuration not stated) | 0.0261 µM | 1.172 | IC50 ([3]; read-out: IC50): 0.0152 µM |
| 0.0187 µM | – | O=c1c(Cc2ccccc2)nc2ccccc2n1CC(O)CCl (configuration not stated) | 0.0163 µM | 0.954 | – |
| 0.00881 µM | 0.0093 µM | O=c1c(Cc2ccccc2)nc2ccccc2n1CC(O)CO (configuration not stated) | 0.0487 µM | 5.52 | IC50 ([3]; read-out: IC50): 0.024 µM; inhibition (INH) (HCT-116 [4]): 27.48%; Selectivity Index (Homo sapiens): 0.921; Activity (HCT-116 [9]): Active; fold change (FC) [5]: >5; IC50 [7]: 0.011 µM |
| 16.2 µM | – | O=C1CC(=O)N(C(=O)Cn2c(=O)c(Cc3ccccc3)nc3ccccc32)N1 | 0.00895 µM | 0.553 | – |
| 0.0158 µM | – | O=C(O)Cn1c(=O)c(Cc2ccccc2)nc2ccccc21 | 13.3 µM | 0.844 | – |
| 0.00584 µM | 0.00841 µM | O=C(Cn1c(=O)c(Cc2ccccc2)nc2ccccc21)NNC(=S)Nc1ccccc1 | 0.0161 µM | 2.751 | IC50 ([3]; read-out: IC50): 0.00541 µM; inhibition (INH) (HCT-116 [4]): 21.27%; Selectivity Index (Homo sapiens): 0.649; fold change (FC) [5]: >5; IC50 [7]: 0.00681 µM |
| 0.0074 µM | 0.0045 µM | CCOC(=O)NNC(=O)Cn1c(=O)c(Cc2ccccc2)nc2ccccc21 | 0.0389 µM | 5.266 | IC50 ([3]; read-out: IC50): 0.0119 µM; inhibition (INH) (HCT-116 [4]): 28.82%; Selectivity Index (Homo sapiens): 2.07; Activity (HCT-116 [9]): Active; fold change (FC) [5]: >5; IC50 [7]: 0.0112 µM |
| 0.0165 µM | – | O=C(Cn1c(=O)c(Cc2ccccc2)nc2ccccc21)OCCNCCO | 0.00503 µM | – | – |
| 0.0198 µM | – | O=c1c(Cc2ccccc2)nc2ccccc2n1Cc1nnc(S)n1-c1ccccc1 | 0.00778 µM | – | – |
| 0.00764 µM | 0.0231 µM | Cc1ccc(C(=O)NNC(=O)Cn2c(=O)c(Cc3ccccc3)nc3ccccc32)cc1 | 0.0497 µM | 6.51 | IC50 ([3]; read-out: IC50): 0.00533 µM; inhibition (INH) (HCT-116 [4]): 73.32%; Selectivity Index (Homo sapiens): 1.88; Activity (HCT-116 [9]): Active; fold change (FC) [5]: >15.94; IC50 [7]: 0.0286 µM |
| 0.0147 µM | – | NNC(=O)Cn1c(=O)c(Cc2ccccc2)nc2ccccc21 | 0.0106 µM | 0.729 | – |
| 0.0186 µM | – | O=C(Cn1c(=O)c(Cc2ccccc2)nc2ccccc21)NN=c1c(=O)c2ccccc2c1=O | 0.00798 µM | 0.435 | – |
| 0.0129 µM | – | N=C(N)NS(=O)(=O)c1ccc(NC(=O)Cn2c(=O)c(Cc3ccccc3)nc3ccccc32)cc1 | 0.00897 µM | 0.695 | – |
